From PubChem BioAssay AID258 (DTP/NCI, 2004)
“And” between values parts separate entries of the source, which are not always exact repeats. Identical values can stand only once. Toxic doses and inconclusive results are not listed.

System: CD2F1 mice, L1210 leukemia sc, survival T/C
Assay: NCI In Vivo Anticancer Drug Screen. Data for tumor model L1210 Leukemia (subcutaneous) in CD2F1 (CDF1) mice
Details: endpoint: median survival time, higher = longer survival
Outline: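 T/C ratio: treated-group survival or tumor size over vehicle-control group measurement, in mice carrying transplanted tumors.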

O=C(Nc1ccccc1)c1c(O)[nH]c(=S)[nH]c1=O
T/C (dose: 5.6 mg/kg/injection, schedule: Q03HX008 (ip), vehicle: other): 107 % of control and 96 % of control | T/C (dose: 5.9 mg/kg/injection, schedule: Q04HX006 (iv), vehicle: other): 110 % of control | T/C (dose: 8.4 mg/kg/injection, schedule: Q03HX008 (ip), vehicle: other): 107 % of control | T/C (dose: 8.9 mg/kg/injection, schedule: Q01DX003 (iv), vehicle: other): 105 % of control | T/C (dose: 8.9 mg/kg/injection, schedule: Q04HX006 (iv), vehicle: other): 109 % of control | T/C (dose: 12.6 mg/kg/injection, schedule: Q03HX008 (ip), vehicle: other): 104 % of control and 111 % of control | T/C (dose: 13.4 mg/kg/injection, schedule: Q01DX003 (iv), vehicle: other): 101 % of control | T/C (dose: 13.4 mg/kg/injection, schedule: Q01DX005 (ip), vehicle: other): 100 % of control and 103 % of control | T/C (dose: 13.4 mg/kg/injection, schedule: Q04HX006 (iv), vehicle: other): 113 % of control | T/C (dose: 18.8 mg/kg/injection, schedule: Q03HX008 (ip), vehicle: other): 122 % of control | T/C (dose: 20.0 mg/kg/injection, schedule: Q01DX003 (iv), vehicle: other): 107 % of control | T/C (dose: 20.0 mg/kg/injection, schedule: Q01DX005 (ip), vehicle: other): 106 % of control and 115 % of control | T/C (dose: 20.0 mg/kg/injection, schedule: Q04HX006 (iv), vehicle: other): 119 % of control | T/C (dose: 28.2 mg/kg/injection, schedule: Q03HX008 (ip), vehicle: other): 157 % of control and 163 % of control | T/C (dose: 29.8 mg/kg/injection, schedule: Q01DX001 (ip), vehicle: other): 105 % of control and 107 % of control | T/C (dose: 30.0 mg/kg/injection, schedule: Q01DX003 (iv), vehicle: other): 124 % of control | T/C (dose: 30.0 mg/kg/injection, schedule: Q04HX006 (iv), vehicle: other): 168 % of control | T/C (dose: 44.7 mg/kg/injection, schedule: Q01DX001 (ip), vehicle: other): 117 % of control and 119 % of control | T/C (dose: 45.0 mg/kg/injection, schedule: Q01DX003 (iv), vehicle: other): 161 % of control | T/C (dose: 45.0 mg/kg/injection, schedule: Q01DX005 (ip), vehicle: other): 173 % of control and 184 % of control

O=NN(CCF)C(=O)NC1CCCCC1
T/C (dose: 1.85 mg/kg/injection, schedule: Q01DX Z (sc), vehicle: carboxymethylcellulose (CMC)): 100 % of control | T/C (dose: 3.75 mg/kg/injection, schedule: Q01DX Z (sc), vehicle: carboxymethylcellulose (CMC)): 111 % of control | T/C (dose: 7.5 mg/kg/injection, schedule: Q01DX Z (sc), vehicle: carboxymethylcellulose (CMC)): 376 % of control | T/C (dose: 15.0 mg/kg/injection, schedule: Q01DX Z (sc), vehicle: carboxymethylcellulose (CMC)): 394 % of control | T/C (dose: 30.0 mg/kg/injection, schedule: Q01DX Z (sc), vehicle: carboxymethylcellulose (CMC)): 211 % of control

COCCCNc1ncnc2[nH]ncc12
T/C (dose: 23.0 mg/kg/injection, schedule: Q01DX Z (sc), vehicle: water): 100 % of control | T/C (dose: 39.0 mg/kg/injection, schedule: Q01DX Z (sc), vehicle: water): 100 % of control | T/C (dose: 65.0 mg/kg/injection, schedule: Q01DX Z (sc), vehicle: water): 100 % of control | T/C (dose: 108.0 mg/kg/injection, schedule: Q01DX Z (sc), vehicle: water): 100 % of control | T/C (dose: 180.0 mg/kg/injection, schedule: Q01DX Z (sc), vehicle: water): 109 % of control | T/C (dose: 300.0 mg/kg/injection, schedule: Q01DX Z (sc), vehicle: water): 109 % of control

Oc1ccc(F)c2cccnc12
T/C (dose: 39.0 mg/kg/injection, schedule: Q01DX Z (sc), vehicle: other): 100 % of control | T/C (dose: 65.0 mg/kg/injection, schedule: Q01DX Z (sc), vehicle: other): 100 % of control | T/C (dose: 108.0 mg/kg/injection, schedule: Q01DX Z (sc), vehicle: other): 100 % of control | T/C (dose: 180.0 mg/kg/injection, schedule: Q01DX Z (sc), vehicle: other): 100 % of control

N[C@H](C(=O)O)[C@@H]1CC(Cl)=NO1
T/C (dose: 2.0 mg/kg/injection, schedule: Q01DX009 (sc), vehicle: saline): 116 % of control

C[C@H](N)C(=O)N[C@@H]1[C@H]2C(=C(O)C[C@@H](O)[C@@H]2O)C(=O)O[C@]1(C)C(Cl)Cl
T/C (dose: 0.37 mg/kg/injection, schedule: Q01DX009 (ip), vehicle: water): 111 % of control | T/C (dose: 0.62 mg/kg/injection, schedule: Q01DX005 (ip), vehicle: water): 112 % of control | T/C (dose: 0.62 mg/kg/injection, schedule: Q01DX005 (iv), vehicle: water): 113 % of control | T/C (dose: 0.75 mg/kg/injection, schedule: Q01DX009 (ip), vehicle: water): 120 % of control | T/C (dose: 0.75 mg/kg/injection, schedule: Q01DX009 (sc), vehicle: water): 116 % of control | T/C (dose: 1.25 mg/kg/injection, schedule: Q01DX005 (ip), vehicle: water): 124 % of control | T/C (dose: 1.5 mg/kg/injection, schedule: Q01DX009 (oral), vehicle: water): 108 % of control | T/C (dose: 3.0 mg/kg/injection, schedule: Q01DX009 (ip), vehicle: water): 160 % of control | T/C (dose: 3.0 mg/kg/injection, schedule: Q01DX009 (oral), vehicle: water): 109 % of control | T/C (dose: 3.0 mg/kg/injection, schedule: Q01DX009 (sc), vehicle: water): 160 % of control | T/C (dose: 6.0 mg/kg/injection, schedule: Q01DX009 (oral), vehicle: water): 112 % of control | T/C (dose: 12.0 mg/kg/injection, schedule: Q01DX009 (oral), vehicle: water): 120 % of control

NCCCNCCCCNC(=O)C(O)NC(=O)CC(O)CCCCN=C(N)N (stereo not given)
T/C (dose: 3.0 mg/kg/injection, schedule: Q01DX009 (ip), vehicle: saline): 156 % of control | T/C (dose: 6.0 mg/kg/injection, schedule: Q01DX009 (ip), vehicle: saline): 168 % of control | T/C (dose: 6.25 mg/kg/injection, schedule: Q01DX009 (ip), vehicle: saline): 163 % of control | T/C (dose: 12.0 mg/kg/injection, schedule: Q01DX009 (ip), vehicle: saline): 196 % of control | T/C (dose: 12.5 mg/kg/injection, schedule: Q01DX009 (ip), vehicle: saline): 184 % of control | T/C (dose: 25.0 mg/kg/injection, schedule: Q01DX009 (ip), vehicle: saline): 208 % of control and 210 % of control | T/C (dose: 50.0 mg/kg/injection, schedule: Q01DX009 (ip), vehicle: saline): 198 % of control and 216 % of control | T/C (dose: 100.0 mg/kg/injection, schedule: Q01DX009 (ip), vehicle: saline): 220 % of control

CNNCc1ccc(C(=O)NC(N)=O)cc1
T/C (dose: 50.0 mg/kg/injection, schedule: Q01DX Z (sc), vehicle: saline): 94 % of control | T/C (dose: 100.0 mg/kg/injection, schedule: Q01DX Z (sc), vehicle: saline): 105 % of control | T/C (dose: 200.0 mg/kg/injection, schedule: Q01DX Z (sc), vehicle: saline): 105 % of control | T/C (dose: 400.0 mg/kg/injection, schedule: Q01DX Z (sc), vehicle: saline): 94 % of control

Nc1cc(=O)[nH][nH]1
T/C (dose: 108.0 mg/kg/injection, schedule: Q01DX Z (sc), vehicle: saline): 105 % of control | T/C (dose: 180.0 mg/kg/injection, schedule: Q01DX Z (sc), vehicle: saline): 100 % of control | T/C (dose: 300.0 mg/kg/injection, schedule: Q01DX Z (sc), vehicle: saline): 100 % of control | T/C (dose: 500.0 mg/kg/injection, schedule: Q01DX Z (sc), vehicle: saline): 100 % of control | T/C (dose: 833.0 mg/kg/injection, schedule: Q01DX Z (sc), vehicle: saline): 100 % of control
